Test system: HBV
Assay: HepAD38 antiviral assay: reduction of viral product accumulation (virion DNA by qPCR, HBsAg or HBeAg by ELISA)
Format: cell-based, hepatitis B virus
Settings: HepAD38 cells, five days after compound addition; 50% reduction of viral product vs no drug controls; read-out: HepAD38 EC50
In short: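 Tetracycline-free HepAD38 cells exposed to compound (DMSO stock diluted 1:200) for 5 days, or 8 days with media and compound refreshed on d2 and d5. Virion DNA quantified by qPCR after lysis; HBsAg or HBeAg measured by ELISA on diluted samples.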

SMILES | EC50
O=C(Nc1cc(F)c(F)c(F)c1)c1ccc(Cl)c(S(=O)(=O)[C@H]2CC3CCC(C2)[C@]3(O)[C@H](O)[C@@H](O)CO)c1 [Example 51] | < 0.104 µM

Same assay, conditions: Hepatitis B virus, 120 h; HepAD38 cells, five days after compound addition; 50% reduction of viral product vs no drug controls; read-out: HepAD38 EC50

SMILES | EC50
O=C(Nc1ccc(F)c(F)c1)c1ccc(Cl)c(S(=O)(=O)[C@H]2CC3CC[C@@H](C2)[C@@]3(O)C(O)CN2CCOC2=O)c1 (stereo partly shown) [Example 312] | > 0.2 µM
COC(=O)N1CCC[C@H]1C(=O)N1C2CCC1CC(S(=O)(=O)c1cc(C(=O)Nc3cc(F)c(F)c(F)c3)ccc1Cl)C2 (stereo partly shown) [Example 143] | > 0.2 µM
O=C1NCC([C@H](O)[C@@H](O)[C@]2(O)C3CCC2C[C@@H](S(=O)(=O)c2cc(C(=O)Nc4ccc(F)c(F)c4)ccc2Cl)C3)O1 (stereo partly shown) [Example 348] | < 0.104 µM
C[C@@H](CO)NC(=O)[C@H]1C[C@H](S(=O)(=O)c2cc(C(=O)Nc3ccc(F)c(F)c3)ccc2Cl)C1 [Example 256a] | > 0.2 µM
O=C(Nc1ccc(F)c(F)c1)c1ccc(Cl)c(S(=O)(=O)C2CO[C@@H]3C(O)CO[C@H]23)c1 (stereo partly shown) [Example 201] | > 0.2 µM
C[C@@H](O)COCC1(O)CC(S(=O)(=O)c2cc(C(=O)Nc3ccc(F)c(F)c3)ccc2Cl)C1 (stereo partly shown) [Example 234] | > 0.2 µM
O=C(Nc1cc(F)c(F)c(F)c1)c1ccc(Cl)c(S(=O)(=O)C2CC3CCC(C2)N3C2CCCC2)c1 (stereo not shown) [Example 146] | > 0.2 µM
COC(=O)N[C@@H](C)C(=O)NC[C@]1(O)C2CCC1C[C@@H](S(=O)(=O)c1cc(C(=O)Nc3cc(F)c(F)c(F)c3)ccc1Cl)C2 [Example 48] | < 0.104 µM
O=C(Nc1ccc(F)c(F)c1)c1ccc(Cl)c(S(=O)(=O)[C@H]2CC3CCC(C2)[C@]3(O)[C@@H](O)c2ccc(F)cn2)c1 (single isomer, unassigned) [Example 291a] | < 0.104 µM
O=C(CC1(O)CC(S(=O)(=O)c2cc(C(=O)Nc3ccc(F)c(F)c3)ccc2Cl)C1)NCCO (stereo not shown) [Example 245] | > 0.2 µM
NS(=O)(=O)NC[C@]1(O)C2CCC1C[C@@H](S(=O)(=O)c1cc(C(=O)Nc3cc(F)c(F)c(F)c3)ccc1Cl)C2 [Example 156] | < 0.104 µM
COCCNC(=O)C[C@]1(O)C2CCC1C[C@@H](S(=O)(=O)c1cc(C(=O)Nc3ccc(F)c(F)c3)ccc1Cl)C2 [Example 190] | < 0.104 µM
C[C@@H](O)[C@H](O)[C@]1(O)C2CCC1C[C@@H](S(=O)(=O)c1cc(C(=O)Nc3cc(F)c(F)c(F)c3)ccc1Cl)C2 (single isomer, unassigned) [Example 109] | < 0.104 µM
C[C@H](O)[C@H](O)[C@]1(O)C2CCC1C[C@@H](S(=O)(=O)c1cc(C(=O)Nc3ccc(F)c(F)c3)ccc1Cl)C2 (single isomer, unassigned) [Example 181] | < 0.104 µM
COC(=O)NCC(O)C(=O)NC[C@]1(O)C2CCC1C[C@@H](S(=O)(=O)c1cc(C(=O)Nc3cc(F)c(F)c(F)c3)ccc1Cl)C2 (stereo partly shown) [Example 96] | 0.1 to 0.2 µM
CC(C)(O)C[C@]1(O)CC[C@@H](CS(=O)(=O)c2cc(C(=O)Nc3ccc(F)c(F)c3)ccc2Cl)CC1 [Example 228] | > 0.2 µM
O=C(Nc1ccc(F)c(F)c1)c1ccc(Cl)c(S(=O)(=O)[C@@H]2CC3C[C@@H](O)C(C2)[C@@]3(O)CO)c1 (stereo partly shown) [Example 328] | 0.1 to 0.2 µM
CC(C)([C@H]1CC[C@@](C)(O)CC1)S(=O)(=O)c1cc(C(=O)Nc2ccc(F)c(F)c2)ccc1Cl [Example 237] | > 0.2 µM
COC(=O)N1CCCC1C(=O)NC[C@@]1(O)C2CC[C@H]1C[C@H](S(=O)(=O)c1cc(C(=O)Nc3cc(F)c(F)c(F)c3)ccc1Cl)C2 (stereo partly shown) [Example 23] | < 0.104 µM

SMILES | EC50
CC(C)(O)CNC(=O)C[C@]1(O)CC[C@@H](CS(=O)(=O)c2cc(C(=O)Nc3ccc(F)c(F)c3)ccc2Cl)CC1 [Example 195] | > 0.2 µM
O=C(Nc1ccc(F)c(F)c1)c1ccc(Cl)c(S(=O)(=O)[C@H]2CC3CCC(C2)[C@]3(O)C(O)c2ccccn2)c1 (stereo partly shown) [Example 284] | < 0.104 µM
CC(O)C[C@]1(O)CC[C@H](CS(=O)(=O)c2cc(C(=O)Nc3ccc(F)c(F)c3)ccc2Cl)CC1 (stereo partly shown) [Example 225] | 0.1 to 0.2 µM
O=C(Nc1ccc(F)c(F)c1)c1ccc(Cl)c(S(=O)(=O)[C@@H]2CC3CC[C@@H](C2)[C@@]3(O)C(O)c2cccc(C(F)F)n2)c1 (stereo partly shown) [Example 350] | < 0.104 µM
O=C(Nc1ccc(F)c(F)c1)c1ccc(Cl)c(S(=O)(=O)[C@H]2CC3CCC(C2)[C@H]3O)c1 (single isomer, unassigned) [Example 206] | 0.1 to 0.2 µM
O=C(Nc1ccc(F)c(F)c1)c1ccc(Cl)c(S(=O)(=O)CC2CCC(F)CC2)c1 (stereo not shown) [Example 226] | > 0.2 µM
O=C(Nc1cc(F)c(F)c(F)c1)c1ccc(Cl)c(S(=O)(=O)[C@H]2CC3CCC(C2)[C@]3(O)CO[C@@H]2C[C@@H](O)[C@@H](O)C2)c1 [Example 35] | < 0.104 µM
Cc1cccnc1C(O)[C@@]1(O)C2CC[C@H]1C[C@H](S(=O)(=O)c1cc(C(=O)Nc3ccc(F)c(F)c3)ccc1Cl)C2 (stereo partly shown) [Example 295] | < 0.104 µM
CC(C)(C1CCC2(CC1)OCCO2)S(=O)(=O)c1cc(C(=O)Nc2ccc(F)c(F)c2)ccc1Cl [Example 231] | > 0.2 µM
C[C@@H](O)COCC1(O)CCC(CS(=O)(=O)c2cc(C(=O)Nc3ccc(F)c(F)c3)ccc2Cl)CC1 (stereo partly shown) [Example 197] | > 0.2 µM
O=C(Nc1ccc(F)c(F)c1)c1ccc(Cl)c(S(=O)(=O)CC2CCC(O)(CO)CC2)c1 (stereo not shown) [Example 194] | 0.1 to 0.2 µM
Cn1cc(C(O)C(O)[C@]2(O)C3CCC2C[C@@H](S(=O)(=O)c2cc(C(=O)Nc4ccc(F)c(F)c4)ccc2Cl)C3)cn1 (stereo partly shown) [Example 322] | < 0.104 µM
O=C(Nc1ccc(F)c(F)c1)c1ccc(Cl)c(S(=O)(=O)[C@H]2C[C@@H](CO)C2)c1 [Example 252b] | > 0.2 µM
O=C(Nc1ccc(F)c(F)c1)c1ccc(Cl)c(S(=O)(=O)[C@H]2CC3CCC(C2)[C@]3(O)CNC(=O)C2CC2)c1 [Example 158] | < 0.104 µM
O=C(CC1(O)CC(S(=O)(=O)c2cc(C(=O)Nc3ccc(F)c(F)c3)ccc2Cl)C1)NCCCO (stereo not shown) [Example 249] | > 0.2 µM
COC(=O)N[C@@H](Cc1ccccc1)C(=O)N1C2CCC1CC(S(=O)(=O)c1cc(C(=O)Nc3cc(F)c(F)c(F)c3)ccc1Cl)C2 (stereo partly shown) [Example 154] | > 0.2 µM
CC(C)N(C)[C@H]1C2CCC1C[C@H](S(=O)(=O)c1cc(C(=O)Nc3ccc(F)c(F)c3)ccc1Cl)C2 [Example 307] | 0.1 to 0.2 µM
CC(C)N(C)C[C@]1(O)C2CCC1C[C@@H](S(=O)(=O)c1cc(C(=O)Nc3ccc(F)c(F)c3)ccc1Cl)C2 [Example 304] | < 0.104 µM
COC(=O)CCNC(=O)CC1(O)CC(S(=O)(=O)c2cc(C(=O)Nc3ccc(F)c(F)c3)ccc2Cl)C1 (stereo not shown) [Example 248] | > 0.2 µM

SMILES | EC50
CC(O)[C@]1(O)CC2CC[C@@H](C1)[C@H]2S(=O)(=O)c1cc(C(=O)Nc2ccc(F)c(F)c2)ccc1Cl (mixture of isomers) [Example 7] | < 0.104 µM
C[C@]1(O)C2CCC1C[C@@H](S(=O)(=O)c1cc(C(=O)Nc3ccc(F)c(F)c3)c(-c3ccccc3)cc1Cl)C2 [Example 101] | > 0.2 µM
O=C(C[C@]1(O)C2CCC1C[C@@H](S(=O)(=O)c1cc(C(=O)Nc3cc(F)c(F)c(F)c3)ccc1Cl)C2)Nc1nccs1 [Example 138] | < 0.104 µM
C[C@]1(O)C2CCC1C[C@@H](S(=O)(=O)c1cc(C(=O)Nc3ccc(F)c(Br)c3)ccc1Cl)C2 [Example 30] | < 0.104 µM
CC(C)(C)OC(=O)N1CC[C@@H](O)[C@H]1C(=O)NC[C@@]1(O)C2CC[C@H]1C[C@H](S(=O)(=O)c1cc(C(=O)Nc3cc(F)c(F)c(F)c3)ccc1Cl)C2 [Example 76] | < 0.104 µM
COC(=O)C1([C@]2(O)C3CCC2C[C@@H](S(=O)(=O)c2cc(C(=O)Nc4cc(F)c(F)c(F)c4)ccc2Cl)C3)COC(C)(C)O1 (stereo partly shown) [Example 202] | < 0.104 µM
O=C(Nc1ccc(F)c(F)c1)c1ccc(Cl)c(S(=O)(=O)CC2CCC(F)(F)CC2)c1 [Example 219] | > 0.2 µM
COC(=O)CNC(=O)[C@H]1C[C@@H](S(=O)(=O)c2cc(C(=O)Nc3ccc(F)c(F)c3)ccc2Cl)C1 [Example 253b] | > 0.2 µM
O=C(Nc1cc(F)c(F)c(F)c1)c1ccc(Cl)c(S(=O)(=O)[C@H]2CC3CCC(C2)[C@]3(O)CNC(=O)C2CCC(O)C(O)C2)c1 (single isomer, unassigned) [Example 19] | > 0.2 µM
COC(=O)N[C@H](C)C(=O)NC[C@]1(O)C2CCC1C[C@@H](S(=O)(=O)c1cc(C(=O)Nc3cc(F)c(F)c(F)c3)ccc1Cl)C2 [Example 86] | < 0.104 µM
O=C(Nc1ccc(F)c(F)c1)c1ccc(Cl)c(S(=O)(=O)[C@H]2CC3CCC(C2)[C@]3(O)[C@H](O)c2ccc(F)cn2)c1 (single isomer, unassigned) [Example 291b] | < 0.104 µM
C[C@@H](CO)NC(=O)CC1(O)CC(S(=O)(=O)c2cc(C(=O)Nc3ccc(F)c(F)c3)ccc2Cl)C1 (stereo partly shown) [Example 247] | > 0.2 µM
CC[C@@H](O)[C@H](O)[C@]1(O)C2CCC1C[C@@H](S(=O)(=O)c1cc(C(=O)Nc3ccc(F)c(F)c3)ccc1Cl)C2 (racemic) [Example 333] | < 0.104 µM
COC(=O)C[C@]1(O)C2CCC1C[C@@H](S(=O)(=O)c1cc(C(=O)Nc3cc(F)c(F)c(F)c3)ccc1Cl)C2 [Example 32] | > 0.2 µM
CC(C)([C@H]1CC[C@](C)(O)CC1)S(=O)(=O)c1cc(C(=O)Nc2ccc(F)c(F)c2)ccc1Cl [Example 238] | > 0.2 µM
C[C@H](O)[C@H](O)[C@]1(O)C2CCC1C[C@@H](S(=O)(=O)c1cc(C(=O)Nc3cc(F)c(F)c(F)c3)ccc1Cl)C2 (single isomer, unassigned) [Example 108] | < 0.104 µM
O=C1NC(C(=O)NC[C@]2(O)C3CCC2C[C@@H](S(=O)(=O)c2cc(C(=O)Nc4cc(F)c(F)c(F)c4)ccc2Cl)C3)CO1 (stereo partly shown) [Example 97] | 0.1 to 0.2 µM
CC(C)(O)CNC(=O)C[C@]1(O)CC[C@H](CS(=O)(=O)c2cc(C(=O)Nc3ccc(F)c(F)c3)ccc2Cl)CC1 [Example 196] | > 0.2 µM

Same assay, conditions: Hepatitis B virus, HePAD38, 120 h, read-out: HepAD38 EC50 (μM)

SMILES | EC50
COC(=O)N[C@@H](C)C(=O)N1C2CCC1CC(S(=O)(=O)c1cc(C(=O)Nc3cc(F)c(F)c(F)c3)ccc1Cl)C2 (single isomer, unassigned) [Example 141] | 0.1 to 0.2 µM

From patent US11596611B2, “Hepatitis B antiviral agents” (ENANTA PHARMACEUTICALS, INC., priority 2017, dated 2023)
